# Reference: patent US10689376B2, “Substituted-3H-imidazo [4,5-c] pyridine and 1H-pyrrolo[2,3-c]pyridine series of novel ectonucleotide pyrophosphatase/phosphodiesterase-1 (ENPP1) and stimulator for interferon genes (STING) modulators as cancer immunotherapeutics” (Stingray Therapeutics, Inc., priority 2017, dated 2020)
# Target: Recombinant Human ENPP-1 Protein (Homo sapiens (Human), UniProt P22413)
# Experiment: ENPP1 Inhibition Assay
# Type: biochemical
# Settings: substrate thymidine 5′-monophosphate p-nitrophenol ester, absorbance at 405 nm
# Experimental: 1. ENPP1 Inhibition Assay
# Materials: • Assay Buffer: 1 mM CaCl2, 0.2 mM ZnCl2, 50 mM Tris, pH 9.0 • Substrate: 8 mM Thymidine 5′-monophosphate p-nitrophenol ester sodium salt (Sigma Cat # T4510) • Enzyme: 5 ng/μL Recombinant Human ENPP-1 Protein (R&D Cat #6136-EN-010) DMSO • 96-well clear assay plates
# An eight point serial dilution of drugs was prepared in 10× in assay buffer with the final assay concentrations starting at 10 μM, 3 μM, 1 μM, 0.3 μM . . . 0 μM. A dilution of DMSO was included as a control. The assay plate was set up as follows with each well in duplicate: 81 μL assay buffer+10 μL ENPP1 inhibitor or DMSO+5 μL Substrate+4 μL Enzyme. Both the enzyme and substrate were added to opposite sides of the well to ensure that there was no interaction until all wells had both components. The plate was then centrifuged gently for 10 seconds, followed by an incubation at 37° C. for 45 minutes. The reaction was quantified by measuring absorbance at 405 nm using the Envision.
# IC50 values are determined using GraphPad Prism 5 software. The data were entered as an X-Y plot into the software as percent inhibition for each concentration of the drug. The concentration values of the drug were log transformed and the nonlinear regression was carried out using the “sigmoidal dose-response (variable slope)” option within the GraphPad software to model the data and calculate IC50 values. The IC50 values reported are the concentration of drug at which 50% inhibition was reached.
# Recombinant Human ENPP-1 Protein, sequence (P22413 whole entry): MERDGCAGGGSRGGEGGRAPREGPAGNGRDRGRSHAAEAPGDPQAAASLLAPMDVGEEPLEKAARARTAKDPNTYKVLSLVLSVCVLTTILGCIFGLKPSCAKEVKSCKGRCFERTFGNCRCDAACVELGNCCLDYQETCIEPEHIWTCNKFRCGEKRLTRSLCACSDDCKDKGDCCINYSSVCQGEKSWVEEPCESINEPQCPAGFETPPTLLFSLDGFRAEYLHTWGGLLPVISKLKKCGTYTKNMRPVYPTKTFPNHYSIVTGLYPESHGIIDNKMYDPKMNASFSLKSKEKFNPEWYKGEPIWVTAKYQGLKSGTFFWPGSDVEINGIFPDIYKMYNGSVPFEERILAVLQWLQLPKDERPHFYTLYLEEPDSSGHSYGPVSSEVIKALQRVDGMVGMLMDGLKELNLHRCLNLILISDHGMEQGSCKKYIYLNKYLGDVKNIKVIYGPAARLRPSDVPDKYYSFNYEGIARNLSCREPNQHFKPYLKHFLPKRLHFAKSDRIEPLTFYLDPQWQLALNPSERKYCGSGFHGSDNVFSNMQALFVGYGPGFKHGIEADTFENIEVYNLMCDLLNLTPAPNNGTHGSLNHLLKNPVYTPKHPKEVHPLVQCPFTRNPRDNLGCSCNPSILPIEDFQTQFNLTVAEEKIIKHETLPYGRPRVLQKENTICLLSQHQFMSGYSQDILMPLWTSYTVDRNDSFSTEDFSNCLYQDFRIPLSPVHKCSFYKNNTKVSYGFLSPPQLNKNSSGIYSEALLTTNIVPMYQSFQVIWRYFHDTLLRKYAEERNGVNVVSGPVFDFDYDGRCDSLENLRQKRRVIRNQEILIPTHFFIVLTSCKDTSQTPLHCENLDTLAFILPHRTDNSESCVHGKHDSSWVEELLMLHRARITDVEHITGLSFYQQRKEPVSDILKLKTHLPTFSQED
row,IC50,Structure (SMILES)
1,22.6 µM,"O=C(CSc1nc2cc(C(F)(F)F)ncc2[nH]1)Nc1ccc(OC(F)(F)F)c(O)c1 [Compound 61, N-(3-Hydroxy-4-(trifluoromethoxy)phenyl)-2-((6-(trifluoromethyl)-3H-imidazo[4,5-c]pyridin-2-yl)thio)acetamide]"
2,40.7 µM,"COc1ccc(NC(=O)CSc2nc3cnc(Cl)cc3[nH]2)cc1OC(F)(F)F [Compound 35, 2-((6-chloro-1H-imidazo[4,5-c]pyridin-2-yl)thio)-N-(4-methoxy-3-(trifluoromethoxy)phenyl)acetamide]"
3,2.06 µM,"COc1nc(NC(=O)CSc2nc3c(C)c(C#N)ncc3[nH]2)ccc1O [Compound 96, 2-((6-cyano-7-methyl-3H-imidazo[4,5-c]pyridin-2-yl)thio)-N-(5-hydroxy-6-methoxypyridin-2-yl)acetamide]"
4,1.16 µM,"COc1cc(NC(=O)CSc2nc3cc(Cl)ncc3[nH]2)ccc1OC(F)F [Compound 29, 2-((6-Chloro-1H-imidazo[4,5-c]pyridin-2-yl)thio)-N-(4-(difluoromethoxy)-3-methoxyphenyl)acetamide]"
5,7.93 µM,"O=C(CSc1nc2cnc(Cl)cc2[nH]1)Nc1cccc(O)c1 [Compound 25, 2-((6-Chloro-1H-imidazo[4,5-c]pyridin-2-yl)thio)-N-(3-hydroxyphenyl)acetamide]"
6,0.224 µM,"COc1ccc(NC(=O)CSc2nc3c(C)c(C#N)ncc3[nH]2)cc1F [Compound 93, 2-((6-Cyano-7-methyl-3H-imidazo[4,5-c]pyridin-2-yl)thio)-N-(3-fluoro-4-methoxyphenyl)acetamide]"
7,1.27 µM,"Cc1c(Cl)ncc2nc(SCC(=O)Nc3ccc(F)c(O)c3)[nH]c12 [Compound 51, 2-((6-Chloro-7-methyl-1H-imidazo[4,5-c]pyridin-2-yl)thio)-N-(4-fluoro-3-hydroxyphenyl)acetamide]"
8,10.2 µM,"COc1c(F)cc(NC(=O)CSc2nc3cnc(C(F)(F)F)cc3[nH]2)cc1F [Compound 44, N-(3,5-Difluoro-4-methoxyphenyl)-2-((6-(trifluoromethyl)-3H-imidazo[4,5-c]pyridin-2-yl)thio)acetamide]"
9,4.46 µM,"COc1ccc(NC(=O)CSc2nc3c(C)cncc3[nH]2)cc1OC [Compound 9, N-(3,4-dimethoxyphenyl)-2-((7-methyl-1H-imidazo[4,5-c]pyridin-2-yl)thio)acetamide]"
10,0.58 µM,"COc1ccc(NC(=O)CSc2nc3cc(Cl)ncc3[nH]2)cc1OC [Compound 3, 2-((6-Chloro-3H-imidazo[4,5-c]pyridin-2-yl)thio)-N-(3,4-dimethoxyphenyl)acetamide]"
11,8.37 µM,"COc1cc(NC(=O)CSc2nc3c(C)cncc3[nH]2)ccc1O [Compound 18, N-(4-hydroxy-3-methoxyphenyl)-2-((7-methyl-3H-imidazo[4,5-c]pyridin-2-yl)thio)acetamide]"
12,5.63 µM,"COc1ccc(NC(=O)CSc2nc3cnc(Cl)c(C)c3[nH]2)cc1F [Compound 50, 2-((6-Chloro-7-methyl-1H-imidazo[4,5-c]pyridin-2-yl)thio)-N-(3-fluoro-4-methoxyphenyl)acetamide]"
13,0.266 µM,"COc1cnc(NC(=O)CSc2nc3cc(Cl)ncc3[nH]2)cc1OC [Compound 85, 2-((6-chloro-1H-imidazo[4,5-c]pyridin-2-yl)thio)-N-(4,5-dimethoxypyridin-2-yl)acetamide]"
14,0.216 µM,"N#Cc1cc2nc(SCC(=O)Nc3ccc(F)c(O)c3)[nH]c2cn1 [Compound 69, 2-((6-Cyano-3H-imidazo[4,5-c]pyridin-2-yl)thio)-N-(4-fluoro-3-hydroxyphenyl)acetamide]"
15,1.14 µM,"COc1ccc(NC(=O)CSc2nc3cnc(Cl)c(C)c3[nH]2)cc1OC [Compound 52, 2-((6-Chloro-7-methyl-1H-imidazo[4,5-c]pyridin-2-yl)thio)-N-(3,4-dimethoxyphenyl)acetamide]"
16,50 µM,"Cc1cncc2[nH]c(SCC(=O)Nc3ccc4c(c3)OCO4)nc12 [Compound 10, N-(benzo[d][1,3]dioxol-5-yl)-2-((7-methyl-1H-imidazo[4,5-c]pyridin-2-yl)thio)acetamide]"
17,0.179 µM,"COc1ccc(NC(=O)CSc2nc3cc(C#N)ncc3[nH]2)cc1O [Compound 67, 2-((6-Cyano-3H-imidazo[4,5-c]pyridin-2-yl)thio)-N-(3-hydroxy-4-methoxyphenyl)acetamide]"
18,33.6 µM,"O=C(CSc1nc2cc(Cl)ncc2[nH]1)Nc1ccc(OC(F)F)cc1 [Compound 40, 2-((6-Chloro-3H-imidazo[4,5-c]pyridin-2-yl)thio)-N-(4-(difluoromethoxy)phenyl)acetamide]"

row,IC50,Structure (SMILES)
1,0.265 µM,"COc1ccc(NC(=O)CSc2nc3c(C)c(C#N)ncc3[nH]2)cc1OC [Compound 77, 2-((6-Cyano-7-methyl-3H-imidazo[4,5-c]pyridin-2-yl)thio)-N-(3,4-dimethoxyphenyl)acetamide]"
2,5.73 µM,"COc1cc2nc(NC(=O)CSc3nc4cc(Cl)ncc4[nH]3)sc2cc1OC [Compound 54, 2-((6-Chloro-3H-imidazo[4,5-c]pyridin-2-yl)thio)-N-(5,6-dimethoxybenzo[d]thiazol-2-yl)acetamide]"
3,0.667 µM,"COc1ccc(NC(=O)CSc2nc3cnc(Cl)c(C)c3[nH]2)cc1O [Compound 49, 2-((6-Chloro-7-methyl-1H-imidazo[4,5-c]pyridin-2-yl)thio)-N-(3-hydroxy-4-methoxyphenyl)acetamide]"
4,1.98 µM,"COc1ccc(NC(=O)CSc2nc3cc(Cl)ncc3[nH]2)nc1OC [Compound 87, 2-((6-chloro-1H-imidazo[4,5-c]pyridin-2-yl)thio)-N-(5,6-dimethoxypyridin-2-yl)acetamide]"
5,0.4 µM,"COc1ccc(NC(=O)CSc2nc3cnc(Cl)cc3[nH]2)cc1F [Compound 27, 2-((6-Chloro-1H-imidazo[4,5-c]pyridin-2-yl)thio)-N-(3-fluoro-4-methoxyphenyl)acetamide]"
6,6.52 µM,"Cc1c(C#N)ncc2[nH]c(SCC(=O)Nc3ccc(F)c(O)c3)nc12 [Compound 79, 2-((6-Cyano-7-methyl-3H-imidazo[4,5-c]pyridin-2-yl)thio)-N-(4-fluoro-3-hydroxyphenyl)acetamide]"
7,3.29 µM,"COc1ccc(NC(=O)CSc2nc3cc(Cl)ncc3[nH]2)cn1 [Compound 72, 2-((6-chloro-3H-imidazo[4,5-c]pyridin-2-yl)thio)-N-(6-methoxypyridin-3-yl)acetamide]"
8,30.2 µM,"COc1ccc(NC(=O)CS(=O)(=O)c2nc3cnc(Cl)cc3[nH]2)cc1F [Compound 70, 2-((6-chloro-1H-imidazo[4,5-c]pyridin-2-yl)sulfonyl)-N-(3-fluoro-4-methoxyphenyl)acetamide]"
9,7.92 µM,"O=C(CSc1nc2cnc(Cl)cc2[nH]1)Nc1ccc(O)cc1 [Compound 33, 2-((6-chloro-1H-imidazo[4,5-c]pyridin-2-yl)thio)-N-(4-hydroxyphenyl)acetamide]"
10,3.52 µM,"COc1ccc(NC(=O)C(C)Sc2nc3cnc(Cl)cc3[nH]2)cc1OC (centres unmarked) [Compound 14, 2-((6-Chloro-1H-imidazo[4,5-c]pyridin-2-yl)thio)-N-(3,4-dimethoxyphenyl)propanamide]"
11,11.3 µM,"COc1ccc(NC(=O)C(C)Sc2nc3cnc(C(F)(F)F)cc3[nH]2)cc1O (centres unmarked) [Compound 42, N-(3-Hydroxy-4-methoxyphenyl)-2-((6-(trifluoromethyl)-3H-imidazo[4,5-c]pyridin-2-yl)thio)propanamide]"
12,6.02 µM,"COc1ccc(NC(=O)CSc2nc3cc(Cl)ncc3[nH]2)cc1N [Compound 82, N-(3-Amino-4-methoxyphenyl)-2-((6-chloro-3H-imidazo[4,5-c]pyridin-2-yl)thio)acetamide]"
13,4.55 µM,"COc1ccc(NC(=O)CSc2nc3cc(Cl)ncc3[nH]2)cc1[N+](=O)[O-] [Compound 83, 2-((6-Chloro-3H-imidazo[4,5-c]pyridin-2-yl)thio)-N-(4-methoxy-3-nitrophenyl)acetamide]"
14,2.29 µM,"COc1ccc(NC(=O)CSc2nc3c(C)cncc3[nH]2)cc1O [Compound 16, N-(3-hydroxy-4-methoxyphenyl)-2-((7-methyl-1H-imidazo[4,5-c]pyridin-2-yl)thio)acetamide]"
15,11.3 µM,COc1ccc(NC(=O)CSc2nc3cc(Cl)ncc3[nH]2)cc1OCC(F)(F)F [Compound 89]
16,10.9 µM,"O=C(CSc1nc2cc(Cl)ncc2[nH]1)Nc1nc2ccccc2s1 [Compound 62, N-(Benzo[d]thiazol-2-yl)-2-((6-chloro-3H-imidazo[4,5-c]pyridin-2-yl)thio)acetamide]"
17,> 50 µM,"O=C(CSc1nc2cc(Cl)ncc2[nH]1)Nc1ccc2c(c1)OCO2 [Compound 7, N-(benzo[d][1,3]dioxol-5-yl)-2-((6-chloro-1H-imidazo[4,5-c]pyridin-2-yl)thio)acetamide]"
